Assay results reported in patent US5840929A, “C4 methoxy ether derivatives of paclitaxel” (Bristol-Myers Squibb Company, priority 1996, dated 1998).
pIC50: −log10 of the molar value.

System: HCT-116 human colon carcinoma cells
Experiment: In vitro cytotoxicity, XTT assay in HCT-116 human colon carcinoma cells (72 h)
Assay type: cell-based
Conditions: for Ratio of IC50 of Compound I over Paclitaxel: HCT-116, ratio to paclitaxel IC50; for pIC50: Homo sapiens, HCT-116, XTT, 72 hours, 4000 cells/well, read-out: IC50 HCT-116 (drug concentration required to inhibit cell proliferation to 50% of untreated control cells)
Experimental: Cytotoxicity was assessed in HCT-116 human colon carcinoma cells by XTT (2,3-bis(2-methoxy-4-nitro-5-sulfphenyl)-5-[(phenylamino)carbonyl]2H-tetrazolium hydroxide) assay as reported in D. A. Scudiero, et al., "Evaluation of soluble tetrazolium/formazan assay for cell growth and drug sensitivity in culture using human and other tumor cell lines," Cancer Res. 48:4827-4833, 1988. Cells were plated at 4000 cells/well in 96 well microtiter plates and 24 hours later drugs were added and serial diluted. The cells were incubated at 37° C. for 72 hours at which time the tetrazolium dye, XTT, was added. A dehydrogenase enzyme in live cells reduces the XTT to a form that absorbs light at 450 nm which can be quantitated spectrophotometrically. The greater the absorbance, the greater the number of live cells. The results are expressed in Table I as an IC50, which is the drug concentration required to inhibit cell proliferation (i.e., absorbance at 450 nm) to 50% of that of untreated control cells.

| SMILES | Ratio of IC50 of Compound I over Paclitaxel | pIC50 |
| --- | --- | --- |
| CO[C@@]12CO[C@@H]1C[C@H](O)[C@@]1(C)C(=O)[C@H](OC(C)=O)C3=C(C)[C@@H](OC(=O)[C@H](O)[C@@H](NC(=O)c4ccccc4)c4ccccc4)C[C@@](O)([C@@H](OC(=O)c4ccccc4)[C@H]21)C3(C)C [Compound Ia, 4-deacetyloxy-4-methoxypaclitaxel] | 21.7 | 7.46 |
| CO[C@@]12CO[C@@H]1C[C@H](O)[C@@]1(C)C(=O)[C@H](OC(C)=O)C3=C(C)[C@@H](OC(=O)[C@H](O)[C@@H](NC(=O)OC(C)(C)C)c4ccco4)C[C@@](O)([C@@H](OC(=O)c4ccccc4)[C@H]21)C3(C)C [Compound Ib, 4-deacetyloxy-4-methoxy-3'-desphenyl-3'-(2-furyl)-3'-N-debenzoyl-3'-N-butoxycarbonyl(paclitaxel)] | 1.61 | 8.43 |
| CO[C@@]12CO[C@@H]1C[C@H](O)[C@@]1(C)C(=O)[C@H](OC(C)=O)C3=C(C)[C@@H](OC(=O)[C@H](O)[C@@H](NC(=O)OC(C)(C)C)c4ccccc4)C[C@@](O)([C@@H](OC(=O)c4ccccc4)[C@H]21)C3(C)C [Compound Ic, 4-deacetyloxy-4-methoxy-3'-N-debenzoyl-3'-N-butoxycarbonyl(paclitaxel)] | 1.69 | 8.66 |
| CC(=O)O[C@H]1C(=O)[C@@]2(C)[C@H]([C@H](OC(=O)c3ccccc3)[C@]3(O)C[C@H](OC(=O)[C@H](O)[C@@H](NC(=O)c4ccccc4)c4ccccc4)C(C)=C1C3(C)C)[C@]1(OC(C)=O)CO[C@@H]1C[C@@H]2O [Paclitaxel, paclitaxel] | – | 8.64 to 8.89 |
